Experimental data: patent US9988400B2 (Genentech, Inc., priority 2013, dated 2018)

These molecules were tested against T1, HEK cells stably transfected with tetracycline inducible hNR1 and hNR2A (Homo sapiens, UniProt Q05586+Q12879) (assay: Assay 1: Cell-Based Assay, cytosolic calcium response to positive allosteric modulators (with 30 μM glycine and 300 nM L-glutamate, EC30)). Conditions: Table 2; cytosolic calcium response, with 30 μM glycine and 300 nM L-glutamate (EC30); — = no plateau was reached.
T1 construct: expressed in transfected cells; host or cells: HEK cells, stably transfected, tetracycline/doxycycline inducible
T1 sequence (Q12879 23-1464, other chains not shown): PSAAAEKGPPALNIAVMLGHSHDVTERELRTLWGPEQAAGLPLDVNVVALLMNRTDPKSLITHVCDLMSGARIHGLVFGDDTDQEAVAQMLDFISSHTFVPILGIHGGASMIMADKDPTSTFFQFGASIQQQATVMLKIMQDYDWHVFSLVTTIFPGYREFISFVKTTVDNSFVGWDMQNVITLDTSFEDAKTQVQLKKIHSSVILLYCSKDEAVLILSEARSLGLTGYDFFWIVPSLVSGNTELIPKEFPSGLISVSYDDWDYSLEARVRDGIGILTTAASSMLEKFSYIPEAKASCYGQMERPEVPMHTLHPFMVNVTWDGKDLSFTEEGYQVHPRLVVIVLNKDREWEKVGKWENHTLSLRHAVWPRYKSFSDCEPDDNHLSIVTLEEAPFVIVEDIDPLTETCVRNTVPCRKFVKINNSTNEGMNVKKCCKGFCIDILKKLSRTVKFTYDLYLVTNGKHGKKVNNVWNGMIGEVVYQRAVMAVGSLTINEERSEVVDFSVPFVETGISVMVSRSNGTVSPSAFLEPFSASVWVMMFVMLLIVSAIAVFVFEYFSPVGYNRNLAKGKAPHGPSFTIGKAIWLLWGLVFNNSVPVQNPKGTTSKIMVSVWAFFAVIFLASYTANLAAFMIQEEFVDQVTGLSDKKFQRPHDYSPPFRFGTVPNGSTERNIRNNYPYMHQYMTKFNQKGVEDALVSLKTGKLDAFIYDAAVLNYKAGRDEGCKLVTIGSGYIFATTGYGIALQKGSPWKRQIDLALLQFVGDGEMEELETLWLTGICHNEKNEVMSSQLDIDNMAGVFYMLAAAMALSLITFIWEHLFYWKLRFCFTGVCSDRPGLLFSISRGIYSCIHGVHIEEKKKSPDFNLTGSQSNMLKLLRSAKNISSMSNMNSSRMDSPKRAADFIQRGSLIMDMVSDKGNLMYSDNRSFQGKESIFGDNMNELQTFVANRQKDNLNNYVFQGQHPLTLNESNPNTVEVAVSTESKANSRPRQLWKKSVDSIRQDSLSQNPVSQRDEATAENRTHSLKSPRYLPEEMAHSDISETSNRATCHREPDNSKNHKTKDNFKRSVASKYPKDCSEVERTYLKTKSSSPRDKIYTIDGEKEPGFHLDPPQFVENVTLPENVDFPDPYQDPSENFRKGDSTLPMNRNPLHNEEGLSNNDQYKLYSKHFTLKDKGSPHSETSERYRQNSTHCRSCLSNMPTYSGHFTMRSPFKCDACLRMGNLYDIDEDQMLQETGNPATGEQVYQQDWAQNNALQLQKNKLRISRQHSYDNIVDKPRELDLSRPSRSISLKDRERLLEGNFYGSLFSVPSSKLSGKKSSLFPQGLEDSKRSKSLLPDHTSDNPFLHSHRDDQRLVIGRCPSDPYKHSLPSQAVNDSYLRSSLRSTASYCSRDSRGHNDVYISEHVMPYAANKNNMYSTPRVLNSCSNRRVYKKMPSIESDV
Procedure, shortened: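 Cells induced 24 h with 7.5 μg mL^−1 doxycycline plus 500 μM (+)-ketamine, loaded 60 min at 37 °C with calcium dye in Mg-free HBSS (1.8 mM Ca, probenecid, 10 μM (+)-ketamine, pH 7.15). Peak RFU over 5 min after compound addition, scaled to 100 μM L-glutamate (100%) and 0 μM (0%); four-parameter Hill fit for EC50, max % if no plateau.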
`CCNC(=O)c1c(C)sc2nc(Cc3cc(C#N)ccc3CCF)cc(=O)n12` [Example 21.61, 7-(5-cyano-2-(2-fluoroethyl)benzyl)-N-ethyl-2-methyl-5-oxo-5H-thiazolo[3,2-a]pyrimidine-3-carboxamide] gave an EC50 of 33.1 µM. For `CNC(=O)c1c(C)sc2nc(Cc3cccc(CF)c3F)cc(=O)n12` [Example 21.68, 7-[[2-fluoro-3-(fluoromethyl)phenyl]methyl]-N,2-dimethyl-5-oxo-thiazolo[3,2-a]pyrimidine-3-carboxamide], the EC50 was 4.2 µM. Work on `Cc1sc2nc(Cc3cccc(C#N)c3)cc(=O)n2c1C1CC1C#N` (centres unmarked) [Example 23.1, 3-((3-(2-cyanocyclopropyl)-2-methyl-5-oxo-5H-thiazolo[3,2-a]pyrimidin-7-yl)methyl)benzonitrile] yielded an EC50 of 18.1 µM. In the case of `Cc1sc2nc(Cc3cccc(C#N)c3F)cc(=O)n2c1C1CC1C#N` (centres unmarked) [Example 23.2, 3-((3-(2-cyanocyclopropyl)-2-methyl-5-oxo-5H-thiazolo[3,2-a]pyrimidin-7-yl)methyl)-2-fluorobenzonitrile], the EC50 is reported as 2.6 µM. In the case of `Cc1sc2nc(Cc3cccc(C#N)n3)cc(=O)n2c1C1CC1C#N` (centres unmarked) [Example 23.3, 6-((3-(2-cyanocyclopropyl)-2-methyl-5-oxo-5H-thiazolo[3,2-a]pyrimidin-7-yl)methyl)picolinonitrile], the EC50 is reported as 14.8 µM. For `Cc1sc2nc(Cc3cccc(C#N)c3F)cc(=O)n2c1C1CC1` [Example 24.4, 3-((3-cyclopropyl-2-methyl-5-oxo-5H-thiazolo[3,2-a]pyrimidin-7-yl)methyl)-2-fluorobenzonitrile], the EC50 was 15.3 µM. For `Cc1sc2nc(Cc3cccc(C#N)c3F)cc(=O)n2c1-c1ccco1` [Example 24.8, 2-fluoro-3-((3-(furan-2-yl)-2-methyl-5-oxo-5H-thiazolo[3,2-a]pyrimidin-7-yl)methyl)benzonitrile], the EC50 was 8.9 µM. Work on `Cc1sc2nc(Cc3cccc(C#N)c3F)cc(=O)n2c1C(=O)NCC(F)(F)F` [Example 25.1, 7-(3-cyano-2-fluorobenzyl)-2-methyl-5-oxo-N-(2,2,2-trifluoroethyl)-5H-thiazolo[3,2-a]pyrimidine-3-carboxamide] yielded an EC50 of 18.7 µM. For `Cc1sc2nc(Cc3cccc(C(F)(F)F)c3F)cc(=O)n2c1C(=O)NCC#N` [Example 25.2, N-(cyanomethyl)-7-(2-fluoro-3-(trifluoromethyl)benzyl)-2-methyl-5-oxo-5H-thiazolo[3,2-a]pyrimidine-3-carboxamide], the EC50 was 15.2 µM. With `Cc1sc2nc(Cc3cccc(C(F)(F)F)c3F)cc(=O)n2c1C#N` [Example 26.2, 7-(2-fluoro-3-(trifluoromethyl)benzyl)-2-methyl-5-oxo-5H-thiazolo[3,2-a]pyrimidine-3-carbonitrile] the EC50 was 9 µM. `O=c1cc(Cn2nc(C(F)(F)F)cc2C2CC2)nc2sc3c(n12)CCC3` [Example 27.5, 10-{[5-cyclopropyl-3-(trifluoromethyl)-1H-pyrazol-1-yl]methyl}-7-thia-1,9-diazatricyclo[6.4.0.0^{2,6}]dodeca-2(6),8,10-trien-12-one] was tested, and the EC50 was 30.4 µM. With `CC1(C)CCc2sc3nc(Cn4nc(C(F)(F)F)cc4C4CC4)cc(=O)n3c21` [Example 27.7, 10-{[5-cyclopropyl-3-(trifluoromethyl)-1H-pyrazol-1-yl]methyl}-3,3-dimethyl-7-thia-1,9-diazatricyclo[6.4.0.0^{2,6}]dodeca-2(6),8,10-trien-12-one] the EC50 was 26.5 µM. `CC1(C)CCc2sc3nc(Cn4nc(C5CC5)cc4C(F)(F)F)cc(=O)n3c21` [Example 27.8, 10-{[3-cyclopropyl-5-(trifluoromethyl)-1H-pyrazol-1-yl]methyl}-3,3-dimethyl-7-thia-1,9-diazatricyclo[6.4.0.0^{2,6}]dodeca-2(6),8,10-trien-12-one] was tested, and the EC50 was 30.4 µM. In the case of `CC(=O)c1c(C)sc2nc(Cc3cccc(C#N)c3F)cc(=O)n12` [Example 27.10, 3-((3-acetyl-2-methyl-5-oxo-5H-thiazolo[3,2-a]pyrimidin-7-yl)methyl)-2-fluorobenzonitrile], the EC50 is reported as 29.1 µM. `Cc1sc2nc(Cc3cccc(C(F)(F)F)c3F)cc(=O)n2c1CO` [Example 27.14, 7-(2-fluoro-3-(trifluoromethyl)benzyl)-3-(hydroxymethyl)-2-methyl-5H-thiazolo[3,2-a]pyrimidin-5-one] was tested, and the EC50 was 44.5 µM.

Same assay, conditions: Table 2; responses scaled relative to 100 μM L-glutamate maximal response (100%) and 0 μM L-glutamate (0%)
Work on `CCNC(=O)c1c(C)sc2nc(Cc3cc(C#N)ccc3CCF)cc(=O)n12` [Example 21.61, 7-(5-cyano-2-(2-fluoroethyl)benzyl)-N-ethyl-2-methyl-5-oxo-5H-thiazolo[3,2-a]pyrimidine-3-carboxamide] yielded a Max % of 131%. For `CCNC(=O)c1c(C)sc2nc(Cc3cccc(C#N)c3Cl)cc(=O)n12` [Example 21.62, 7-(2-chloro-3-cyanobenzyl)-N-ethyl-2-methyl-5-oxo-5H-thiazolo[3,2-a]pyrimidine-3-carboxamide], the Max % was 45.6%. Molecule `CCNC(=O)c1c(C)sc2nc(Cc3c(CC)ccc(F)c3F)cc(=O)n12` [Example 21.63, N-ethyl-7-(6-ethyl-2,3-difluorobenzyl)-2-methyl-5-oxo-5H-thiazolo[3,2-a]pyrimidine-3-carboxamide] has a Max % of 124%. `CCNC(=O)c1c(C)sc2nc(Cc3cc(C#N)ccc3CC)cc(=O)n12` [Example 21.64, 7-(5-cyano-2-ethylbenzyl)-N-ethyl-2-methyl-5-oxo-5H-thiazolo[3,2-a]pyrimidine-3-carboxamide] gave a Max % of 120%. For `CCNC(=O)c1c(C)sc2nc(Cc3cc(F)ccc3C3CC3)cc(=O)n12` [Example 21.65, 7-(2-cyclopropyl-5-fluorobenzyl)-N-ethyl-2-methyl-5-oxo-5H-thiazolo[3,2-a]pyrimidine-3-carboxamide], the Max % was 96.3%. With `CCNC(=O)c1c(C)sc2nc(Cc3cc(C#N)ccc3C3CC3)cc(=O)n12` [Example 21.66, 7-(5-cyano-2-cyclopropylbenzyl)-N-ethyl-2-methyl-5-oxo-5H-thiazolo[3,2-a]pyrimidine-3-carboxamide] the Max % was 92.4%. `CCCc1ccc(F)cc1Cc1cc(=O)n2c(C(=O)NCC)c(C)sc2n1` [Example 21.67, N-ethyl-7-(5-fluoro-2-propylbenzyl)-2-methyl-5-oxo-5H-thiazolo[3,2-a]pyrimidine-3-carboxamide] gave a Max % of 75%. `CNC(=O)c1c(C)sc2nc(Cc3cccc(CF)c3F)cc(=O)n12` [Example 21.68, 7-[[2-fluoro-3-(fluoromethyl)phenyl]methyl]-N,2-dimethyl-5-oxo-thiazolo[3,2-a]pyrimidine-3-carboxamide] gave a Max % of 111%. For `CCNC(=O)c1c(C)sc2nc(C(C)c3cccc(C(F)(F)F)c3F)cc(=O)n12` (centres unmarked) [Example 22.1, N-ethyl-7-(1-(2-fluoro-3-(trifluoromethyl)phenyl)ethyl)-2-methyl-5-oxo-5H-thiazolo[3,2-a]pyrimidine-3-carboxamide], the Max % was 96.9%. `CCN(C)C(=O)c1c(C)sc2nc(Cc3cccc(C(F)(F)F)c3F)cc(=O)n12` [Example 22.2, N-ethyl-7-(2-fluoro-3-(trifluoromethyl)benzyl)-N,2-dimethyl-5-oxo-5H-thiazolo[3,2-a]pyrimidine-3-carboxamide] showed a Max % of 41.4%. Work on `Cc1sc2nc(Cc3cccc(C#N)n3)cc(=O)n2c1C1CC1C#N` (centres unmarked) [Example 23.3, 6-((3-(2-cyanocyclopropyl)-2-methyl-5-oxo-5H-thiazolo[3,2-a]pyrimidin-7-yl)methyl)picolinonitrile] yielded a Max % of 133%.

Same assay, conditions: Table 3; cytosolic calcium response, with 30 μM glycine and 300 nM L-glutamate (EC30); — = no plateau was reached
`Cc1sc2nc(Cn3nc(C(F)(F)F)cc3Cl)cc(=O)n2c1C(C)C#N` (centres unmarked) [Example 251A] was tested, and the EC50 was 2.62 µM. With `CNC(=O)c1c(C)sc2nc(Cc3cccc(C4CC4)c3F)cc(=O)n12` [compound 1, 7-[(3-cyclopropyl-2-fluoro-phenyl)methyl]-N,2-dimethyl-5-oxo-thiazolo[3,2-a]pyrimidine-3-carboxamide] the EC50 was 0.932 µM. For `CCNC(=O)c1c(C)sc2nc(Cc3c(F)ccc(F)c3F)cc(=O)n12` [compound 2, N-ethyl-2-methyl-5-oxo-7-[(2,3,6-trifluorophenyl)methyl]thiazolo[3,2-a]pyrimidine-3-carboxamide], the EC50 was 33.7 µM. With `Cc1sc2nc(Cc3cccc(C#N)c3F)cc(=O)n2c1-c1ncco1` [compound 3, 2-fluoro-3-[(2-methyl-3-oxazol-2-yl-5-oxo-thiazolo[3,2-a]pyrimidin-7-yl)methyl]benzonitrile] the EC50 was 10.9 µM. With `CCNC(=O)c1c(C)sc2nc(Cc3cc(C#N)cc(C4CC4)c3F)cc(=O)n12` [compound 4, 7-[(5-cyano-3-cyclopropyl-2-fluoro-phenyl)methyl]-N-ethyl-2-methyl-5-oxo-thiazolo[3,2-a]pyrimidine-3-carboxamide] the EC50 was 3.88 µM. For `CCNC(=O)c1c(C)sc2nc(Cc3cccc(OC)c3F)cc(=O)n12` [compound 5, N-ethyl-7-[(2-fluoro-3-methoxy-phenyl)methyl]-2-methyl-5-oxo-thiazolo[3,2-a]pyrimidine-3-carboxamide], the EC50 was 15.1 µM. Work on `CNC(=O)c1c(C)sc2nc(Cc3cccc(C4CC4)c3F)c(F)c(=O)n12` [compound 6, 7-[(3-cyclopropyl-2-fluoro-phenyl)methyl]-6-fluoro-N,2-dimethyl-5-oxo-thiazolo[3,2-a]pyrimidine-3-carboxamide] yielded an EC50 of 0.753 µM. `CNC(=O)Cc1c(C)sc2nc(Cc3cccc(Cl)c3F)cc(=O)n12` [compound 7, 2-[7-[(3-chloro-2-fluoro-phenyl)methyl]-2-methyl-5-oxo-thiazolo[3,2-a]pyrimidin-3-yl]-N-methyl-acetamide] gave an EC50 of 9.73 µM. `CCNC(=O)c1c(C)sc2nc(Cc3cccc(Cl)c3F)c(F)c(=O)n12` [compound 8, 7-[(3-chloro-2-fluoro-phenyl)methyl]-N-ethyl-6-fluoro-2-methyl-5-oxo-thiazolo[3,2-a]pyrimidine-3-carboxamide] gave an EC50 of 2.55 µM. With `CNC(=O)c1c(C)sc2nc(Cc3cc(F)c(F)cc3OC)cc(=O)n12` [compound 9, 7-[(4,5-difluoro-2-methoxy-phenyl)methyl]-N,2-dimethyl-5-oxo-thiazolo[3,2-a]pyrimidine-3-carboxamide] the EC50 was 8.04 µM. `Cc1sc2nc(Cc3cccc(C#N)c3F)cc(=O)n2c1C1CC1C` (centres unmarked) [compound 10, 2-fluoro-3-[[2-methyl-3-(2-methylcyclopropyl)-5-oxo-thiazolo[3,2-a]pyrimidin-7-yl]methyl]benzonitrile] showed an EC50 of 0.471 µM. `CNC(=O)Cc1c(C)sc2nc(Cc3cccc(C4CC4)c3F)cc(=O)n12` [compound 11, 2-[7-[(3-cyclopropyl-2-fluoro-phenyl)methyl]-2-methyl-5-oxo-thiazolo[3,2-a]pyrimidin-3-yl]-N-methyl-acetamide] showed an EC50 of 1.14 µM.
